Results: the NIST ThermoML archive (doi:10.1016/j.jct.2010.11.007)
“And” between values parts separate entries of the source, which are not always exact repeats. Equal entries are not always repeated. ± gives the expanded uncertainty stated by the source.

Columns and labels:
[1] = 101.33 kPa, Liquid; for speed of sound: Sing-around technique in a fixed-path interferometer; for mass density: Vibrating tube method
[2] = refractive index (Na D-line) (dimensionless); details: 101.33 kPa, Liquid, Standard Abbe refractometry
[3] = xn = mol fraction of the nth substance listed; details: Liquid, x2 = 0; for speed of sound: Sing-around technique in a fixed-path interferometer; for mass density: Vibrating tube method
[4] = refractive index (Na D-line) (dimensionless); xn = mol fraction of the nth substance listed; details: 101 kPa, Liquid, Standard Abbe refractometry, x2 = 0

C=CC(C)(O)CCC=C(C)C (stereo unspecified) [3,7-dimethyl-1,6-octadien-3-ol]
Details	mass density, [1] [kg/m3]	refractive index, [2]	speed of sound, [1] [m/s]
283.15 K	869.39 ± 0.63	1.46659 ± 0.0005 and 1.4666 ± 0.0005	1370.3 ± 2
298.15 K	857 ± 0.62	1.45946 ± 0.0005	1315.1 ± 2
313.15 K	844.29 ± 0.61	1.45215 ± 0.0005	1260.8 ± 2
328.15 K	831.31 ± 0.6	1.44473 ± 0.0005	1207.6 ± 2

CCCO [propan-1-ol]
Details	mass density, [1] [kg/m3]	refractive index, [2]	speed of sound, [1] [m/s]
283.15 K	811.52 ± 0.13	1.38906 ± 0.00032	1257.9 ± 0.7
298.15 K	799.56 ± 0.13	1.38288 ± 0.00032	1206.3 ± 0.7
313.15 K	787.33 ± 0.14	1.3766 ± 0.00032	1156.8 ± 0.7
328.15 K	774.69 ± 0.14	1.37015 ± 0.00032	1106.8 ± 0.7

CCCO [propan-1-ol] + C=CC(C)(O)CCC=C(C)C
[3]
Details	mass density, 101 kPa [kg/m3]	mass density, 20000 kPa [kg/m3]	mass density, 25000 kPa [kg/m3]	mass density, 30000 kPa [kg/m3]	mass density, 35000 kPa [kg/m3]	mass density, 40000 kPa [kg/m3]	speed of sound, 101 kPa [m/s]
283.15 K	811.52 ± 0.13	825.3 ± 1	828.5 ± 1	831.5 ± 1	834.5 ± 1	837.4 ± 1.1	1258 ± 0.7
298.15 K	799.56 ± 0.13	814.3 ± 1	817.8 ± 1	821 ± 1	824.1 ± 1.1	827.3 ± 1.1	1206.3 ± 0.7
313.15 K	787.34 ± 0.14	803.3 ± 1	806.9 ± 1	810.4 ± 1	813.8 ± 1.1	817 ± 1.1	1156.8 ± 0.7
328.15 K	774.69 ± 0.14	792.1 ± 1	795.9 ± 1	799.6 ± 1.1	803.2 ± 1.1	806.6 ± 1.1	1106.8 ± 0.7

[4]
Details	refractive index
283.15 K	1.38906 ± 0.00032
298.15 K	1.38288 ± 0.00032
313.15 K	1.3766 ± 0.00032
328.15 K	1.37015 ± 0.00032
